This is an account of results in PMC6508677, “Identification of druggable small molecule antagonists of the Plasmodium falciparum hexose transporter PfHT and assessment of ligand access to the glucose permeation pathway via FLAG-mediated protein engineering” (PLoS ONE, 2019).

Values joined by “and” are separate entries in the source; they are usually repeats but may differ in a detail not shown here. Identical values can stand only once.

One test deals with GLUT1 Y293I. Further details: method as in PMID 8157690. Particulars: GLUT1 Y293I vs wild type; cited from earlier work.
The target in another test is T1, PfHT (Plasmodium falciparum, UniProt Q7KWJ5).
T1 sequence (Q7KWJ5 1-504): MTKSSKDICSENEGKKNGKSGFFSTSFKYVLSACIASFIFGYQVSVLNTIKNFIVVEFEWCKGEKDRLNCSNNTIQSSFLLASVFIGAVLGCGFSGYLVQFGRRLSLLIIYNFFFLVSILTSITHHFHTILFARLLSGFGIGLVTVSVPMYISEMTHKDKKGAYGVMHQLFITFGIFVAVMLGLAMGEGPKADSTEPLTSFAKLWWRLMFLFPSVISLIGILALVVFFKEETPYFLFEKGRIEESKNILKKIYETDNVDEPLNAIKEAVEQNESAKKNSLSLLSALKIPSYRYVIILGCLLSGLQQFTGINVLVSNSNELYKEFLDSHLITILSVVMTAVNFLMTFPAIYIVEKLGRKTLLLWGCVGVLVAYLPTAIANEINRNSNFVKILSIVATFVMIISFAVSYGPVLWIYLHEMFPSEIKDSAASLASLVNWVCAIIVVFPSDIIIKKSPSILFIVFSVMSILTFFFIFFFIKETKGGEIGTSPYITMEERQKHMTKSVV
In words: Kinetic analysis (Dixon plot) of zero-trans D-fructose uptake in HEK293PfHT cells. Further details: expressed in transfected cells; host or cells: HEK293 (HEK293-FLIP, native hGLUT1 knocked down by shRNA). The test is classed as cell-based. Here is the method: Glucose uptake by P. falciparum was performed essentially as described. P. falciparum strain 3D7 was cultured in 100 mm tissue culture dishes (Techno Plastic Products) in a 2% suspension of human erythrocytes and RPMI 1640 medium until reaching > 7.5% parasitemia. Cells were pelleted via centrifugation and resuspended in RPMI 1640 medium. To determine the uptake of radiolabeled glucose into the parasite, parasites were isolated from infected erythrocytes by permeablization with saponin (0.05 w/v), followed by centrifugation, aspiration of supernatant and washing of the pellet 3X with saline solution (135 mM NaCl, 2 mM KCl, 25 mM HEPES, 0.2 mM glucose and 1 mM MgCl2; pH 7.1) to remove cellular debris. WU-1 or DMSO vehicle were added to 100 μl parasites (resuspended in saline) 5 min prior to the addition of 100 μl [^14C]2-DOG (0.2- μCi/ml final concentration). 2-DG uptake was stopped after 2 min by layering the entire reaction over 300 μl of an oil mixture (5:4 mix of dibutyl phthalate / dinonyl phthalate) in Eppendorf tubes and centrifuged at 15,850 × g for 2 mins. The ratio of the estimated intracellular concentration of radiolabel relative to the extracellular concentration were calculated as described. Uptake of radiolabeled hexose into HEK293 cells was measured in glucose-free HBSS as described previously. Briefly, cells were plated at 400,000 cells/well overnight at 37°C in 24-well plates pre-treated with PEI. After 30-min incubation at 37°C in glucose-free HBSS in the presence of vehicle or increasing concentrations of compound, 2-DG uptake was measured in glucose-free HBSS for 4 min at 37°C. Cultures were washed in ice-cold 1X PBS and lysed in 0.1% Triton X-100 in 1X PBS. Radiolabeled hexose uptake was determined by liquid scintillation counting (Ultima Gold, Thermo Fisher) and normalized to total protein per well. […] Incubation times had been previously determined as being in the linear range of time-dependent radiolabeled hexose uptake (2 min for 2-DG uptake into freed parasites; 2 and 4 min for D-Frc and 2-DG uptake HEK cell lines, respectively). […]

For the compound `C=C1[C@@H](C)[C@H]2[C@H](Cc3ccccc3)NC(=O)[C@]23OC(=O)/C=C/[C@H](O)CCC[C@@H](C)C/C=C/[C@H]3[C@@H]1O` [CB, cytochalasin B], the “increase of Ki by Y293I mutation” value with GLUT1 Y293I was > 100 fold.

For orientation: Ki means the equilibrium dissociation constant of an inhibitor or competing ligand from its target. Turning to `Cc1ccc(S(=O)(=O)CCNC(=O)c2c(-c3c(Cl)cccc3Cl)noc2C)cc1` [WU-1, 3-(2,6-dichlorophenyl)-5-methyl-N-[2-(4-methylbenzenesulfonyl)ethyl]-1,2-oxazole-4-carboxamide], the inhibitory constant (Ki) is 4.4 ± 0.3 µM on PfHT (Ki (Dixon plot, horizontal intercepts), zero-trans D-fructose uptake, HEK293PfHT, mean); 5.32 µM and 4.25 µM and 3.83 µM and 4.22 µM on PfHT (Ki (µM) from individual Dixon lines, one value per D-fructose concentration line). Further, the mode of inhibition result at PfHT (zero-trans D-fructose uptake/hexose influx by PfHT) is listed as “non-competitive inhibitor”.
